Converted amounts (≈) assume the structure as drawn. “Also recorded” adds a separate entry of the source. Where two headings read alike, the source gives them in different places.
Tests used:
[1] = system: bovine alveolar macrophages; assay: Phospholipidosis assay (HCS LipidTox, Incucyte); assay type: cell-based; settings: Bos taurus, Macrophage
Text: The second immunomodulation in vitro assay evaluated the potential for phospholipidosis with the compounds of the invention in bovine alveolar macrophages. This assay is utilized to determine cellular uptake of the compounds of the invention in relevant bovine and murine cell types. This assay utilized Invitrogen's commercially available HCS LipidTox detection kit with an Incucyte real time fluorescence reader to observe variations in EC50 and phospholipidosis profiles based on compound concentrations. Murine intraperitoneal macrophages were also used in the same assay to evaluate species variability for potential correlation with mouse efficacy results. The combination of the bovine whole blood assay and phospholipidosis assays enabled rank ordering for progression into in vivo testing in the murine challenge model.

[2] = system: IL-6; assay: Plasma IL-6 biomarker in bovine M. haemolytica challenge; settings: for IL-6 levels (plasma) in bovine M. haemolytica challenge: in vivo
[3] = system: IL-1β; assay: LPS-stimulated whole bovine blood assay, MSD cytokine detection; assay type: cell-based; settings: for IC50: Bos taurus, LPS-stimulated whole bovine blood, * = enhanced response at concentration indicating potential cytotoxicity; for IL-1β OS of LPS: overstimulation of IL-1β, LPS-stimulated bovine whole blood
[4] = system: TNF-α; assay: as above; assay type: cell-based; settings: for IC50: Bos taurus
[5] = Lipophilicity (logP); assay type: physicochemical
Text: The lipophilicity of an organic compound can be described by a partition coefficient, log P, which can be defined as the ratio of the concentration of the unionized compound at equilibrium between organic and aqueous phases. Generally speaking, more lipophilic compounds are less soluble in aqueous media. A negative value for log P means the compound has a higher affinity for the aqueous phase (hydrophilic); when log P=0 the compound is equally partitioned between the lipid and aqueous phases; a positive value for log P denotes a higher concentration in the lipid phase (lipophilic). Lipophilicity is a major determining factor in a compound's absorption, distribution in the body, penetration across vital membranes and biological barriers, metabolism and excretion. The compounds of the invention are lipophilic (log P˜0.503 to 5.96) which aid in their transport and absorption into respiratory tissues, e.g., lungs.

[6] = system: M. haemolytica (OSU-012103-BHI); assay: In vivo bovine M. haemolytica intratracheal lung infection challenge model; settings: for Significance to T01, mortality: p≤0.2; for Mortality/Euthanization No, % / Mortality/Euthanization No, Number: surviving animals
[7] = system: M. haemolytica; assay: In-vitro MIC model (CLSI broth micro-dilution); settings: Mannheimia haemolytica
[8] = LPS-stimulated bovine whole blood, read-out: TNF-α (IC50 μM)
[9] = LPS-stimulated whole bovine blood, read-out: TNF-α IC50
[10] = Table 7 study, T02: 0.5 mg/kg subcutaneous
[11] = Table 7 study, T03: 2.5 mg/kg subcutaneous
[12] = read-out: MIC to the M. haemolytica challenge strain
[13] = 32 hours post challenge, dosed 24 hours prior to challenge
[14] = 4 independent studies with multiple blood donors, FIG. 4
[15] = Table 9 study, T03: 0.5 mg/kg subcutaneous
[16] = Table 9 study, T04: 2.5 mg/kg subcutaneous
[17] = Table 7 study, T04: 10 mg/kg subcutaneous, positive control
[18] = Table 9 study, T05: 10 mg/kg subcutaneous, positive control

## CCCNC[C@]1(O)[C@H](C)O[C@@H](O[C@H]2[C@H](C)[C@@H](O[C@@H]3O[C@H](C)C[C@H](N(C)C(=O)Nc4ccccc4)[C@H]3O)[C@](C)(O)C[C@@H](C)CN[C@H](C)[C@@H](O)[C@](C)(O)[C@@H](CC)OC(=O)[C@@H]2C)C[C@@]1(C)OC [Example H-91, 1-((2S,3R,4S,6R)-2-(((2R,3S,4R,5R,8R,10R,11R,12S,13S,14R)-2-ethyl-3,4,10-trihydroxy-13-(((2R,4R,5S,6S)-5-hydroxy-4-methoxy-4,6-dimethyl-5-((propylamino)methyl)tetrahydro-2H-pyran-2-yl)oxy)-3,5,8,10,12,14-hexamethyl-15-oxo-1-oxa-6-azacyclopentadecan-11-yl)oxy)-3-hydroxy-6-methyltetrahydro-2H-pyran-4-yl)-1-methyl-3-phenylurea]
[1]
  EC50: 88 µM
[2]
  IL-6 levels (plasma) in bovine M. haemolytica challenge: reduction; also recorded: downregulated
[3]
  IC50: 103 µM
  IL-1β OS of LPS: 130 µM
[4]; [8]
  IC50: 85 µM
[4]; [9]
  IC50: 90 µM
[5]
  logP: 3.1
[6]; Table 6 study, T02: 0.5 mg/kg subcutaneous
  Significance at .20 level to T01, lung lesions: Yes
[6]; Table 6 study, T03: 2.5 mg/kg subcutaneous
  Significance at .20 level to T01, lung lesions: Yes
[6]; [10]
  Mortality/Euthanization Yes, %: 0%
  Mortality/Euthanization Yes, Number: 0
  Significance to T01, mortality: Yes
  Mortality/Euthanization No, %: 100%
  Mortality/Euthanization No, Number: 23
[6]; [11]
  Mortality/Euthanization Yes, %: 8.3%
  Mortality/Euthanization Yes, Number: 2
  Significance to T01, mortality: Yes
  Mortality/Euthanization No, %: 91.7%
  Mortality/Euthanization No, Number: 22
[7]
  MIC: > 256 µg/mL
[7]; read-out: MIC against all M. haemolytica target pathogens tested
  MIC: > 256 µg/mL
[7]; [12]
  MIC: > 256 µg/mL

## CCCNC[C@]1(O)[C@H](C)O[C@@H](O[C@H]2[C@H](C)[C@@H](O[C@@H]3O[C@H](C)C[C@H](N(C)C(=O)N(C)c4ccccc4)[C@H]3O)[C@](C)(O)C[C@@H](C)CN[C@H](C)[C@@H](O)[C@](C)(O)[C@@H](CC)OC(=O)[C@@H]2C)C[C@@]1(C)OC [Example H-11, 1-((2S,3R,4S,6R)-2-(((2R,3S,4R,5R,8R,10R,11R,12S,13S,14R)-2-ethyl-3,4,10-trihydroxy-13-(((2R,4R,5S,6S)-5-hydroxy-4-methoxy-4,6-dimethyl-5-((propylamino)methyl)tetrahydro-2H-pyran-2-yl)oxy)-3,5,8,10,12,14-hexamethyl-15-oxo-1-oxa-6-azacyclopentadecan-11-yl)oxy)-3-hydroxy-6-methyltetrahydro-2H-pyran-4-yl)-1,3-dimethyl-3-phenylurea]
[1]
  EC50: 4 µM
[2]; [13]
  reduction in IL-6 levels (geometric mean): 51%
  reduction in IL-6 levels (median value): 43%
[2]
  IL-6 levels (plasma) in bovine M. haemolytica challenge: reduced; also recorded: downregulated
[3]; [14]
  expression of IL-1β, LPS stimulated whole bovine blood: dose dependent reduction
[3]
  IC50: 36 µM
  IL-1β OS of LPS: 32 µM
[4]; [14]
  expression of TNF-α, LPS stimulated whole bovine blood: dose dependent reduction
[4]; [8]
  IC50: 8 µM
[4]; [9]
  IC50: 8 µM
[5]
  logP: 3.2
[6]; Table 8 study, T03: 0.5 mg/kg subcutaneous
  Significance at .20 level to T01, lung lesions: No
[6]; Table 8 study, T04: 2.5 mg/kg subcutaneous
  Significance at .20 level to T01, lung lesions: Yes
[6]; [15]
  Mortality/Euthanization Yes, %: 16.7%
  Mortality/Euthanization Yes, Number: 4
  Significance to T01, mortality: Yes
  Mortality/Euthanization No, %: 83.3%
  Mortality/Euthanization No, Number: 20
[6]; [16]
  Mortality/Euthanization Yes, %: 25.0%
  Mortality/Euthanization Yes, Number: 6
  Significance to T01, mortality: No
  Mortality/Euthanization No, %: 75.0%
  Mortality/Euthanization No, Number: 18
[6]; treatment 24 hours prior to challenge, FIG. 8
  number of blood neutrophils: reduced
[7]
  MIC: > 64 µg/mL

## CCCNC[C@]1(O)[C@H](C)O[C@@H](O[C@H]2[C@H](C)[C@@H](O[C@@H]3O[C@H](C)C[C@H](NC)[C@H]3O)[C@](C)(O)C[C@@H](C)CN[C@H](C)[C@@H](O)[C@](C)(O)[C@@H](CC)OC(=O)[C@@H]2C)C[C@@]1(C)OC [Example M9, (2R,3S,4R,5R,8R,10R,11R,12S,13S,14R)-2-ethyl-3,4,10-trihydroxy-13-(((2R,4R,5S,6S)-5-hydroxy-4-methoxy-4,6-dimethyl-5-((propylamino)methyl)-tetrahydro-2H-pyran-2-yl)oxy)-11-(((2S,3R,4S,6R)-3-hydroxy-6-methyl-4-(methylamino)tetrahydro-2H-pyran-2-yl)oxy)-3,5,8,10,12,14-hexamethyl-1-oxa-6-azacyclopentadecan-15-one, reference compound]
[1]
  EC50: 3740 µM
[2]
  IL-6 levels (plasma) in bovine M. haemolytica challenge: significantly reduced; also recorded: downregulated
[3]
  IC50: ~250 µM
[4]; [8]
  IC50: 250 µM
[4]; [9]
  IC50: ~250 µM
[5]
  logP: 2.2
[6]; 10 mg/kg, separate study, saline control 38.9%
  Mortality: 13%
[6]; T02: 10 mg/kg subcutaneous Day -1, M. haemolytica challenge Day 0, 6 animals
  Mortality: 1/6
[6]; T04: 10 mg/kg subcutaneous Day -1, No challenge, 6 animals
  Mortality: 0/6
[6]; Table 6 study, T04: 10 mg/kg subcutaneous
  Significance at .20 level to T01, lung lesions: Yes
[6]; [17]
  Mortality/Euthanization Yes, %: 12.5%
  Mortality/Euthanization Yes, Number: 3
  Mortality/Euthanization No, %: 87.5%
  Mortality/Euthanization No, Number: 21
[6]; Table 7 study, T04: 10 mg/kg subcutaneous
  Significance to T01, mortality: Yes
[6]; Table 8 study, T05: 10 mg/kg subcutaneous
  Significance at .20 level to T01, lung lesions: yes
[6]; [18]
  Mortality/Euthanization Yes, %: 13.0%
  Mortality/Euthanization Yes, Number: 3
  Mortality/Euthanization No, %: 87.0%
  Mortality/Euthanization No, Number: 20
[6]; Table 9 study, T05: 10 mg/kg subcutaneous
  Significance to T01, mortality: Yes
[7]
  MIC50: > 64 µg/mL
  MIC90: > 64 µg/mL
[7]; ATCC33396, read-out: Comparative MIC's, M. haemolytica ATCC 33396
  MIC: 32 µg/mL (≈ 40.4 µM)
[7]; read-out: Comparative MIC's, M. haemolytica 12726
  MIC: 32 µg/mL (≈ 40.4 µM)
[7]; read-out: Comparative MIC's, M. haemolytica 46571*
  MIC: 32 µg/mL (≈ 40.4 µM)
[7]; [12]
  MIC: > 64 µg/mL

From US12295936B2, “Immunomodulating urea azalides” (Zoetis Services LLC, priority 2020, dated 2025)
